The values that follow come from ChEMBL document CHEMBL1129092, “Structure-activity relationship study on N-glycosyl moieties through model building of DNA and ellipticine N-glycoside complex” (1996).

One assay deals with L1210. The assay is described as follows: Antitumor activity against L1210 in mice, after ip administration at 30 mg/kg for 5 consecutive days, expressed as average % of life time in 6 mice, treated mice/control. Format: functional, Mus musculus. As to conditions: route intraperitoneal.
Assay [1] is filed under the species Mus musculus. The assay can be described thus: Compound was tested for antitumor activity against L1210 in mice; Active. Format: functional, organism-based.
For assay [2], the species on record is Mus musculus. The assay can be described thus: Compound was tested for antitumor activity against L1210 in mice; Inactive. Format: functional, organism-based.

Structures are written as SMILES. Active and inactive are the calls of the source. The calls are words filed in the database; no cut-off is given here. Bounds are passed on as bounds.

For the compound `Cc1c2cc[n+]([C@@H]3OC[C@H](O)[C@H](O)[C@H]3O)cc2c(C)c2c1[nH]c1ccc(O)cc12.[Br-]`, the T/C with L1210 is above 960%. Besides, in the assay listed under Mus musculus [1], the “Activity Score” value is “Active”.
The compound `CO[C@@H]1[C@@H](O)[C@@H](O)CO[C@H]1[n+]1ccc2c(C)c3[nH]c4ccc(O)cc4c3c(C)c2c1.[Br-]` came in with a T/C with L1210 of 123%. In addition, in the assay listed under Mus musculus [2], the “Activity Score” value is “inactive”.
Take `CO[C@@H]1[C@@H](O)[C@H]([n+]2ccc3c(C)c4[nH]c5ccc(O)cc5c4c(C)c3c2)OC[C@@H]1O.[Br-]`: the T/C with L1210 was 169%. In the assay filed under Mus musculus [1], the “Activity Score” value is “Active”.
In the assay with L1210, `CO[C@H]1CO[C@@H]([n+]2ccc3c(C)c4[nH]c5ccc(O)cc5c4c(C)c3c2)[C@H](O)[C@H]1O.[Br-]` yielded a T/C of 167%. In addition, the “Activity Score” value in the assay listed under Mus musculus [1] was “Active”.

Broadly, the T/C is the result in the treated group divided by that in the control group, in per cent.
